Measured values from US9056844B2, “4-substituted-3-benzyloxy-bicyclo[3.1.0]hexane compounds as mGluR 2/3 antagonists” (Eli Lilly and Company, priority 2010, dated 2015).

Legend:
human mGlu4 receptor = target: T1, human mGlu4 receptor (Homo sapiens, UniProt Q14833); assay: FLIPR calcium assay for mGlu receptor selectivity, mGlu4 antagonist mode; format: cell-based; conditions: inhibition of EC90 glutamate response, read-out: mGlu4 % inhib. @12.5 μM
T1 construct: expressed in transfected cells; host or cells: AV12 cells, co-expressing rat EAAT1 and Galpha15
T1 sequence (Q14833 33-912): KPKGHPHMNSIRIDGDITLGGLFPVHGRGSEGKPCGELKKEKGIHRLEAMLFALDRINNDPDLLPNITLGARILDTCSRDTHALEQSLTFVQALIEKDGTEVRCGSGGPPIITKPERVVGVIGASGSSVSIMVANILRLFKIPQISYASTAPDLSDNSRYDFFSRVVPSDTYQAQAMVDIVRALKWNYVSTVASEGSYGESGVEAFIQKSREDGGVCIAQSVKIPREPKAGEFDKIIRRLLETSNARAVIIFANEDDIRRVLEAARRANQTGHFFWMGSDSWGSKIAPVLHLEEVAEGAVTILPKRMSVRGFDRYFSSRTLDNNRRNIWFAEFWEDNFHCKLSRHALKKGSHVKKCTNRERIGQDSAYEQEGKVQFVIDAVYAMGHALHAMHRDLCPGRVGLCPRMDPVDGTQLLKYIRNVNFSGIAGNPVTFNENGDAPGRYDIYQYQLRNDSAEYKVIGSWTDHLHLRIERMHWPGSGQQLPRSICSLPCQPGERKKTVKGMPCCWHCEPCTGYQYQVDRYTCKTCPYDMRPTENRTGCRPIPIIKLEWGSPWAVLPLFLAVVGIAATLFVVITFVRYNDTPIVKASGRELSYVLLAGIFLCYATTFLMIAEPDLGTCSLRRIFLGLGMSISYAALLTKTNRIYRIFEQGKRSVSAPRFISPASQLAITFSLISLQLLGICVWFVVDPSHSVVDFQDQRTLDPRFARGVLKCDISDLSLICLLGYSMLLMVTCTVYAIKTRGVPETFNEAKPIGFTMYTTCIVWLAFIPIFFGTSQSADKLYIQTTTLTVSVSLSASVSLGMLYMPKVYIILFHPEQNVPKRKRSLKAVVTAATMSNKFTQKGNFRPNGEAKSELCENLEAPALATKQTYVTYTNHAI
Excerpt: (§1) FLIPR and cAMP Assays for mGlu Receptor Selectivity
(§2) The relative antagonist potencies of the compounds of the invention for the other human mGlu receptors can be assessed with either a cAMP assay or fluorometric calcium response assay (see for example Fell et al., JPET (in press)). Briefly, individual AV12 cell lines containing the rat EAAT1 glutamate transporter and stably expressing the human mGlu1, 2, 3, 4, 5, 6, & 8 receptors are used for these studies. The mGlu1 and 5 receptors are […], so they naturally signal through phospholipase C, producing a calcium flux response which can be used to measure receptor activation using a Fluorometric Imaging Plate Reader (FLIPR, Molecular Devices). The cell lines expressing the mGlu2, 3, 4, and 8 receptor are designed to express the Gα15 subunit so that these Gi-coupled receptors will generate a calcium flux response similar to the mGlu1 and 5 receptor expressing cell lines. The mGlu6 receptor is tested in a cAMP format using methods analogous to those developed for mGlu2 and mGlu3 above. These cell lines are maintained as previously described except that amounts of L-glutamine and selection agents (geneticin, hygromycin B, zeocin, and blasticidin) may vary depending on the cell line. Confluent cultures are passaged biweekly.
(§3) Intracellular calcium levels are monitored using FLIPR before and after the addition of test compounds and Fluo-3 AM (Invitrogen) or Calcium 4 (Molecular Devices) dye, depending on the cell line. Cells are plated 24 hours prior to assay in a variable concentration of glutamine and a variable density of cells per well, depending on the cell line. The medium is removed and the cells are incubated with 8 μM of dye (50 μl per well) for 90 or 120 minutes (depending on cell line) at 25° C. A single-addition FLIPR assay generating an 11-point concentration response curve for the agonist glutamate is conducted prior to each experiment to confirm the appropriate sensitivity of the cells. The results are analyzed using GraphPad Prism v4.03 to calculate the concentrations of glutamate needed to induce the EC90 (antagonist assay) and EC10 (potentiator assay) responses.
(§4) Compounds are tested at each mGlu receptor in a two-addition FLIPR assay using a 10-point concentration response profile starting at a final concentration of 25 μM for the agonist assay and 12.5 μM for the potentiator and antagonist assays. The first addition detects any agonist activity, and the second addition consists of 100 μl of select concentrations (depending on cell line) of glutamate in assay buffer generating an EC10 or EC90 glutamate response. Agonist effects are quantified as percent stimulation induced by compound alone relative to the maximal glutamate response. Antagonist effects are quantified by calculating the percent inhibition of the EC90 glutamate response caused by the compound. Potentiation effects are quantified as percent increase in the presence of an EC10 response in glutamate relative to the ECmax response. All data are calculated as relative IC50 or EC50 values using a four-parameter logistic curve fitting program (ActivityBase v5.3.1.22).

human mGlu6 receptor = target: T2, human mGlu6 receptor (Homo sapiens, UniProt O15303); assay: mGlu6 cAMP antagonist assay (reference agonist L-AP4); format: cell-based; conditions: cAMP format
T2 construct: expressed in transfected cells; host or cells: AV12 cells, co-expressing rat EAAT1
T2 sequence (O15303 25-877): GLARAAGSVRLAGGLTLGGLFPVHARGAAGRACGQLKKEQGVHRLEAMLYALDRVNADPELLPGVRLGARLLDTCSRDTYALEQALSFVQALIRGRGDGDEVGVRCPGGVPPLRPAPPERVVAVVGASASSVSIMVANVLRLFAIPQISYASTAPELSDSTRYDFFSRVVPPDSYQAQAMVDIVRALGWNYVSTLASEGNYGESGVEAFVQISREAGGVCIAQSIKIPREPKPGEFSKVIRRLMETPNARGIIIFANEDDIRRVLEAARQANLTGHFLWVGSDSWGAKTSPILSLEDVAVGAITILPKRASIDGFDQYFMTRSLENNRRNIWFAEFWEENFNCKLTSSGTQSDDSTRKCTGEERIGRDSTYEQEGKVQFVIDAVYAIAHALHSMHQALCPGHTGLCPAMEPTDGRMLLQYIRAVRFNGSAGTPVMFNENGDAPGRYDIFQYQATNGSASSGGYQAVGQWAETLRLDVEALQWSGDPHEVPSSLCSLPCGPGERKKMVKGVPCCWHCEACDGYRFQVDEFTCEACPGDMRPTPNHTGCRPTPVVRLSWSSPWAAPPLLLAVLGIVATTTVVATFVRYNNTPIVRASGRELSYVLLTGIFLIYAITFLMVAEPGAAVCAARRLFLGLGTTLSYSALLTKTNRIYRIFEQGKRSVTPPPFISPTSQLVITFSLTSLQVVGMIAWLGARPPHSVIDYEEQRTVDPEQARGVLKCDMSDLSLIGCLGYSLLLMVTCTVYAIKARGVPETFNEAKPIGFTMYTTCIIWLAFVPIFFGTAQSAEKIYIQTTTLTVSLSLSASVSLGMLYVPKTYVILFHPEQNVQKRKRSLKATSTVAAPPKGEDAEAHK
Excerpt: as §1, §2
Antagonist activity in mGlu6 cells is measured using cAMP in a method analogous to that described above for mGlu2 and mGlu3 activity, except that the reference agonist was L-AP4 (Tocris). […] Relative IC50 and EC50 values are calculated from the top-bottom range of the concentration response curve using a four-parameter logistic curve fitting program (ActivityBase v5.3.1.22).

human mGlu8 receptor = target: T3, human mGlu8 receptor (Homo sapiens, UniProt O00222); assay: FLIPR calcium assay for mGlu receptor selectivity, mGlu8 antagonist mode; format: cell-based; conditions: for inhibition at 12.5 µM: inhibition of EC90 glutamate response, read-out: mGlu8 % inhib. @12.5 μM; for IC50: printed in brackets below the % inhib. value
T3 construct: expressed in transfected cells; host or cells: AV12 cells, co-expressing rat EAAT1 and Galpha15
T3 sequence (O00222 34-908): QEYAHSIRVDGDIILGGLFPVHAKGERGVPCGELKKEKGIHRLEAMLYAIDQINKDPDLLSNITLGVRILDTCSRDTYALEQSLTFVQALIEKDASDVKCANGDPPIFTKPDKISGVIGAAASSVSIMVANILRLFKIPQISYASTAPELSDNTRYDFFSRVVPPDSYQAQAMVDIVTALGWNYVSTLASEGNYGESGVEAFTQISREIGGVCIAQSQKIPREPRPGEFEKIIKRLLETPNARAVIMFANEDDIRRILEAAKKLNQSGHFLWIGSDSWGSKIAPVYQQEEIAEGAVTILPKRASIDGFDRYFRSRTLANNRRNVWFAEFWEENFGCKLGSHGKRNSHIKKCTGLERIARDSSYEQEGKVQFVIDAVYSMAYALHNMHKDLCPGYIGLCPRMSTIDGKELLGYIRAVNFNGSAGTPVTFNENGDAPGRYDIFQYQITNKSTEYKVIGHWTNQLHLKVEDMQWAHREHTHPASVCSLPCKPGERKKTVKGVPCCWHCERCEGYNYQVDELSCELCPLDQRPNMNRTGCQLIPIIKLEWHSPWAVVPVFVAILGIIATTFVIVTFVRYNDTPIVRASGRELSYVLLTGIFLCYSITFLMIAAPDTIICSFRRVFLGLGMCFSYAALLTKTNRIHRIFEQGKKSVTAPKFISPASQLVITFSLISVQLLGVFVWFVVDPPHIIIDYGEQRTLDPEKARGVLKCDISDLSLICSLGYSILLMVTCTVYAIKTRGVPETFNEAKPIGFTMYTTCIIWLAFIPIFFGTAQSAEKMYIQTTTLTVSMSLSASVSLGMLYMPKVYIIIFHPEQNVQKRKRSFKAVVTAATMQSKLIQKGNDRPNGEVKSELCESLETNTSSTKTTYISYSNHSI
Excerpt: as §1, §2, §3, §4

male NIH-Swiss mice = assay: Forced-swim test in mice (mFST); format: in vivo, mouse; conditions: for ED60: Mus musculus, ip, immobility in last 4 min of 6 min; for Maximal Decrease (1 − compound/control) * 100%: i.p., immobility time
Excerpt: Forced-Swim Test in Mice (mFST)
mFST is an established in vivo assay for antidepressant activity (Li et al. J Pharmacol Exp Ther. 319(1):254-9, 2006.). […] The mFST was used to evaluate potential antidepressant-like activity of novel mGlu2/3 antagonists essentially as described in previously published methods (see for example, Li et al. J Pharmacol Exp Ther. 319(1):254-9, 2006.). Briefly, male NIH-Swiss mice (Harlan Sprague-Dawley, Indianapolis, Ind.) weighing between 25-30 g are used. Group housed animals are removed from the vivarium to the testing area in their own cages and allowed to adapt to the new environment for at least 1 hour before testing. Compounds where R^1 and R^2 are both hydrogen are dissolved in water with minimal NaOH added for dissolution and are administered i.p. Compounds where R^1 and/or R^2 are other than hydrogen are prepared on the day of use in 2.0-2.5% N-methyl-pyrrolidinone and then suspended in 1% HEC, 0.25% Tween 80, and 0.05% Dow antifoam, and administered orally. Mice are placed in a cylinder (diameter: 10 cm; height: 25 cm) filled with 6 cm of water (22-25° C.) for 6 min. The duration of immobility during the last 4 min. of the 6 min. period of the test was scored. A mouse is recorded as immobile when floating motionless or making only those movements necessary to keep its head above water.

SMILES: N[C@]1(C(=O)O)[C@@H]2[C@@H](C(=O)O)[C@@H]2[C@H](O)[C@H]1OCc1ccc(Cl)c(Cl)c1 [Example 1, (1S,2R,3S,4S,5R,6R)-2-Amino-3-[(3,4-dichlorobenzyl)oxy]-4-hydroxybicyclo[3.1.0]hexane-2,6-dicarboxylic acid]
- inhibition at 12.5 µM (human mGlu4 receptor): 28.5%
- IC50 (human mGlu6 receptor): 3300 nM
- inhibition at 12.5 µM (human mGlu8 receptor): 78.4%
- IC50 (human mGlu8 receptor): 1900 nM
- ED60 (male NIH-Swiss mice): 1 mg/kg
- Maximal Decrease (1 − compound/control) * 100% (male NIH-Swiss mice): 59%

SMILES: N[C@]1(C(=O)O)[C@@H]2[C@@H](C(=O)O)[C@@H]2[C@H](Sc2nc[nH]n2)[C@H]1OCc1ccc(Cl)c(Cl)c1 [Example 2, (1R,2R,3S,4S,5R,6R)-2-Amino-3-[(3,4-dichlorobenzyl)oxy]-4-(1H-1,2,4-triazol-3-ylsulfanyl)bicyclo[3.1.0]hexane-2,6-dicarboxylic acid]
- inhibition at 12.5 µM (human mGlu4 receptor): 69%
- IC50 (human mGlu6 receptor): 1290 ± 162 nM
- inhibition at 12.5 µM (human mGlu8 receptor): 92.3%
- IC50 (human mGlu8 receptor): 507 nM
- ED60 (male NIH-Swiss mice): 2.08 mg/kg
- Maximal Decrease (1 − compound/control) * 100% (male NIH-Swiss mice): 62%

SMILES: CC(=O)N[C@H]1[C@H]2[C@H](C(=O)O)[C@H]2[C@](N)(C(=O)O)[C@@H]1OCc1ccc(Cl)c(Cl)c1 [Example 4, (1S,2R,3R,4S,5R,6S)-4-(Acetylamino)-2-amino-3-[(3,4-dichlorobenzyl)oxy]bicyclo[3.1.0]hexane-2,6-dicarboxylic acid]
- inhibition at 12.5 µM (human mGlu4 receptor): 13.3%
- IC50 (human mGlu6 receptor): 2640 ± 424 nM
- inhibition at 12.5 µM (human mGlu8 receptor): 23.4%
- ED60 (male NIH-Swiss mice): 9.5 mg/kg
- Maximal Decrease (1 − compound/control) * 100% (male NIH-Swiss mice): 38%

SMILES: Cl.Cn1cnc(S[C@H]2[C@H]3[C@H](C(=O)O)[C@H]3[C@](N)(C(=O)O)[C@@H]2OCc2ccc(Cl)c(Cl)c2)n1 [Example 7, (1R,2R,3S,4S,5R,6R)-2-Amino-3-[(3,4-dichlorophenyl)methoxy]-4-[(1-methyl-1,2,4-triazol-3-yl)sulfanyl]bicyclo[3.1.0]hexane-2,6-dicarboxylic acid hydrochloride.]
- inhibition at 12.5 µM (human mGlu4 receptor): 32.2%
- IC50 (human mGlu6 receptor): 3690 nM
- inhibition at 12.5 µM (human mGlu8 receptor): 46.7%
- ED60 (male NIH-Swiss mice): > 10 mg/kg
- Maximal Decrease (1 − compound/control) * 100% (male NIH-Swiss mice): 18%

SMILES: Cl.N[C@]1(C(=O)O)[C@@H]2[C@@H](C(=O)O)[C@@H]2[C@H](NC(=O)CO)[C@H]1OCc1ccc(Cl)c(Cl)c1 [Example 9, (1S,2R,3R,4S,5R,6S)-2-Amino-3-[(3,4-dichlorobenzyl)oxy]-4-[(hydroxyacetyl)amino]bicyclo[3.1.0]hexane-2,6-dicarboxylic acid hydrochloride]
- inhibition at 12.5 µM (human mGlu4 receptor): 46.9%
- IC50 (human mGlu6 receptor): 2820 nM
- inhibition at 12.5 µM (human mGlu8 receptor): 13.3%
- ED60 (male NIH-Swiss mice): 9.68 mg/kg
- Maximal Decrease (1 − compound/control) * 100% (male NIH-Swiss mice): 41%
